# Experimental data: US20260042764A1, “COMPOSITIONS AND METHODS FOR INHIBITION OF KRAS” (TheRas, Inc., priority 2022, published 2026)
# pIC50: −log10 of the molar value.
# Experiments:
# GP2d cells (KRAS G12D) = assay: Cell-based pERK HTRF assay in GP2d cell (Biological Example 2); conditions: GP2d (KRAS G12D) cells
# Outline: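 Cells grown in DMEM with 10% FBS were exposed to compound for 60 min at 0.25% DMSO, using a 9-point half-log series starting at 1 μM or 100 nM. Lysates were then mixed with d2 and Eu cryptate antibodies for 4–24 h at room temperature, and pERK was read by HTRF.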
# [1] = target: T1, Avi-KRAS WT (2-169) GTP/RAF1 RBD-3xFLAG (51-131) (Homo sapiens, UniProt P01116); assay: Raf1-KRAS WT-GTP disruption HTRF assay (Biological Example 3); type: binding; conditions: KRAS WT, GTP-loaded
# T1 construct: Avi-KRAS WT (2-169)
# T1 sequence (P01116 2-169 isoform P01116-2): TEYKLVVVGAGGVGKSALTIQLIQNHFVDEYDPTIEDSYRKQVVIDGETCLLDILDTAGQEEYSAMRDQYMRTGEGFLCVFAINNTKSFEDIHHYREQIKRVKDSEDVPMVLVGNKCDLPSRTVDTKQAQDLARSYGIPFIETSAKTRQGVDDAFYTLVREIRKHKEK
# Outline: (§1)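 50 nM Avi-KRAS (2-169) GTP/RAF1 RBD complex; 75 nM RBD-Avi; pH 7.5 Tris buffer, 10% DMSO; cpd 30 μM top, 3x, 10 pts; 1 h RT, 700 rpm; HTRF, % of DMSO.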
# [2] = target: T2, Avi-KRAS G12C (2-169) GTP/RAF1 RBD-3xFLAG (51-131) (Homo sapiens, UniProt P01116, G12C); assay: Raf1-KRAS G12C-GTP disruption HTRF assay (Biological Example 3); type: binding; conditions: KRAS G12C, GTP-loaded
# T2 construct: Avi-KRAS G12C (2-169)
# T2 sequence (P01116 2-169 isoform P01116-2 G12C): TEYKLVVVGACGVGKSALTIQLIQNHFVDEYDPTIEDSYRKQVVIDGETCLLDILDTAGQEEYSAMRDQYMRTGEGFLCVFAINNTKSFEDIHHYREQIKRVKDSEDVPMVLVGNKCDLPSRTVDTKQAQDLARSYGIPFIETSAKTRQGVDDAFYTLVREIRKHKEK
# Outline: as §1
# [3] = target: T3, Avi-KRAS G12D (2-169) GTP/RAF1 RBD-3xFLAG (51-131) (Homo sapiens, UniProt P01116, G12D); assay: Raf1-KRAS G12D-GTP disruption HTRF assay (Biological Example 3); type: binding; conditions: KRAS G12D, GTP-loaded
# T3 construct: Avi-KRAS G12D (2-169)
# T3 sequence (P01116 2-169 isoform P01116-2 G12D): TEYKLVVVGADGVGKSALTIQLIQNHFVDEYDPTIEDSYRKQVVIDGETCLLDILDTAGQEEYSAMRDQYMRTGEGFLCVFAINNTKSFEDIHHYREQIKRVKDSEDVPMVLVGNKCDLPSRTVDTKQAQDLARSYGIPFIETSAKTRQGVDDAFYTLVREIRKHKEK
# Outline: as §1
# [4] = target: T4, Avi-KRAS G12V (2-169) GTP/RAF1 RBD-3xFLAG (51-131) (Homo sapiens, UniProt P01116, G12V); assay: Raf1-KRAS G12V-GTP disruption HTRF assay (Biological Example 3); type: binding; conditions: KRAS G12V, GTP-loaded
# T4 construct: Avi-KRAS G12V (2-169)
# T4 sequence (P01116 2-169 isoform P01116-2 G12V): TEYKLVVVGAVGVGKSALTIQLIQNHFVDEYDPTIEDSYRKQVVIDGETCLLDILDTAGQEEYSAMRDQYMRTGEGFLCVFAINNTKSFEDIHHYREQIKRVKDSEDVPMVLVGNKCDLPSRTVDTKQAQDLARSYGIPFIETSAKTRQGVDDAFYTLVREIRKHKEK
# Outline: as §1
# SW620 cells (KRAS G12V) = assay: Cell-based pERK HTRF assay in SW620 cell (Biological Example 4)
# Outline: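 In SW620 cells grown in RPMI with 10% FBS, a 4 h compound treatment (0.25% DMSO, 9-point curve from 1 μM) preceded lysis. Phospho-ERK levels were then read by time-resolved FRET at 615 nm emission.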
# [5] = Homo sapiens, SW-620, SW620 (KRAS G12V) cells
SMILES,pIC50 (GP2d cells (KRAS G12D)),pIC50 [1],pIC50 [2],pIC50 [3],pIC50 [4],pIC50 (SW620 cells (KRAS G12V); SW620 (KRAS G12V) cells),pIC50 (GP2d cells (KRAS G12D); GP2d),pIC50 (SW620 cells (KRAS G12V); [5])
CCN(c1nc(OCC23CCCN2CC(F)C3)nc2c(F)c(-c3ccc(F)c4sc(N)c(C#N)c34)c(C(F)(F)F)cc12)C1CCN(C(=O)c2nc(C)ns2)C1 (stereo not drawn) [Compound 932],–,5.00 to 6.00,6.00 to 7.00,6.00 to 7.00,5.00 to 6.00,–,> 7.00,> 7.00
"CCN(c1nc(OC[C@@]23CCCN2C[C@H](F)C3)nc2c(F)c(-c3ccc(F)c4sc(N)c(C#N)c34)c(C(F)(F)F)cc12)[C@H]1C[C@H]2CN(CC(F)F)C(=O)N2C1 (atropisomer, axis not shown) [Compound 940]",–,6.00 to 7.00,6.00 to 7.00,6.00 to 7.00,6.00 to 7.00,–,> 7.00,> 7.00
"CCN(c1nc(OC[C@@]23CCCN2C[C@H](F)C3)nc2c(F)c(-c3ccc(F)c4sc(N)c(C#N)c34)c(C(F)(F)F)cc12)[C@H]1C[C@H](COC)N(C(=O)[C@@H]2CC2(F)F)C1 (atropisomer, axis not shown) [Compound 854]",–,6.00 to 7.00,6.00 to 7.00,6.00 to 7.00,6.00 to 7.00,–,> 7.00,> 7.00

# Next, values leading:
pIC50 (GP2d cells (KRAS G12D)),pIC50 [1],pIC50 [2],pIC50 [3],pIC50 [4],pIC50 (SW620 cells (KRAS G12V); SW620 (KRAS G12V) cells),pIC50 (GP2d cells (KRAS G12D); GP2d),pIC50 (SW620 cells (KRAS G12V); [5]),SMILES
> 7.00,6.00 to 7.00,6.00 to 7.00,6.00 to 7.00,6.00 to 7.00,> 7.00,–,–,CCN(c1nc(OC[C@@]23CCCN2C[C@H](F)C3)nc2c(F)c(-c3ccc(F)c4sc(N)c(C#N)c34)c(C(F)(F)F)cc12)C1C[C@H](C)N(C(=O)C2CC2)C1 (stereo partly drawn) [Compound 909]
–,6.00 to 7.00,≥ 7.00,≥ 7.00,≥ 7.00,–,> 7.00,> 7.00,"CCN(c1nc(OC[C@@]23CCCN2C[C@H](F)C3)nc2c(F)c(-c3ccc(F)c4sc(N)c(C#N)c34)c(C(F)(F)F)cc12)[C@H]1C[C@H](C)N(C(=O)[C@@H]2CCO2)C1 (atropisomer, axis not shown) [Compound 922]"
–,< 5.00,< 5.00,5.00 to 6.00,< 5.00,–,> 7.00,> 7.00,CCN(c1nc(OC[C@@]23CCCN2C[C@H](F)C3)nc2c(F)c(-c3ccc(F)c4sc(N)c(C#N)c34)c(C(F)(F)F)cc12)[C@@H]1CCN(c2ccccn2)C1 [Compound 945]
